Laboratory results reported in patent publication US20220002399A1, “METHODS FOR DECREASING INFLUENZA-INDUCED LETHALITY USING GASTRIN-RELEASING PEPTIDE (GRP) INHIBITORS OR GASTRIN-RELEASING PEPTIDE RECEPTOR (GRPR) ANTAGONISTS” (University of Maryland, Baltimore, priority 2018, published 2022).
Ends that are not written are not given here.

Key:
[1] = tested on: radiation-induced pneumonitis/fibrosis; settings: therapeutic administration; cited from earlier work
[2] = tested on: LPS signaling (TLR4) in WT C57BL/6J peritoneal macrophages; experiment: LPS signaling in peritoneal macrophages pre-treated with GRP inhibitor or GRPR antagonist; type: cell-based, mouse; settings: 0.5 μM pre-treatment 1 h, then LPS (10 ng/ml) 2 h
[3] = tested on: influenza-induced cytokine induction; experiment: Lung cytokine gene expression by qRT-PCR in PR8-infected mice; type: in vivo, WT C57BL/6J mice; design: lung mRNA expression of IFN-β: dose or concentration left out as unconfirmed
[4] = tested on: pulmonary neuroendocrine cells (PNECs); experiment: IHC staining for pulmonary neuroendocrine cells (PGP 9.5, GRP) in influenza-infected mice; type: in vivo, WT C57BL/6J mice
From the text: FIG. 4. IHC staining for pulmonary neuroendocrine cells (PNECs), PGP 9.5, and GRP in influenza-infected mice. Lung sections from FIG. 3 were stained in a mock-infected, c PR8+vehicle, and e PR8+NSC77427 for neural/neuroendocrine-specific PGP 9.5, or in b mock-infected, d PR8+vehicle, and f PR8+NSC77427 for GRP, a neuroendocrine granule marker. Scale bars shown are 50 μm for a-d, and 10 μm for e and f. Arrows are positioned in each panel within a treatment group to indicate groups of positive cells, except in b, where the arrow indicates GRP− cells adjacent to the PGP 9.5+ cells shown in a. g Graphic image analysis of PGP 9.5+ and GRP+ cells after IHC staining. Slides were blinded by an observer with no knowledge of experimental groups. PCP9.5+ and GRP+ cells were counted throughout each complete lung lobe crosssection for each animal, with validation by x40 micrographs of each slide. Total tissue area was determined by using ImageI thresholding analysis (methyl green counterstain) because PNECs are mainly observed in alveolar ducts and small bronchioles. *p=0.009; **p=0.001
Immunohistochemical (IHC) staining for the mature GRP peptide (a PNEC granule marker) and PGP 9.5 (the neural/NE cytoplasmic isoform of ubiquitin-C-terminal hydrolase-1) was carried out as described previously. In brief, formalin-fixed, paraffin-embedded lung sections were treated for 10 min with Triton X-100 (0.3% in phosphate-buffered saline (PBS)), then normal serum blocking. Diluted primary antibodies were added to sections overnight at 4° C., followed by washing in PBS and incubation for 2 h at 4° C. with 1:200 dilution of biotinylated secondary antibodies (Vector, Burlingame, Calif., USA). After blocking in 3% H2O2 in methanol, Vector ABC Elite was applied to slides for 30 min. Slides were developed by using diaminobenzidine and H2O2, and then counterstained in 2% aqueous methyl green. All slides were blinded for semi-quantitative analysis. Results are expressed as mean numbers of cells positive for PGP 9.5 or GRP per mm^2 lung tissue section. […]

GRP-induced angiogenesis = settings: 0.5 μM; in vitro and in vivo; cited from earlier work
[5] = tested on: LPS signaling (TLR4) in WT C57BL/6J peritoneal macrophages; type: cell-based, mouse; settings: 2 h
[6] = 20 μM/mouse i.v. daily day 2 to 6

| Molecule | lung injury [1] | LPS-induced MyD88-dependent (TNF-α) or TRIF-dependent (IFN-β, RANTES) gene expression [2] | lung mRNA expression of IL-1β [3, 6] | lung mRNA expression of RANTES [3, 6] | lung mRNA expression of TNF-α [3, 6] | lung mRNA expression of IFN-β ([3]; i.v. daily day 2 to 6) | fewer PGP+ PNECs vs. PR8-infected untreated ([4]; NSC77427 days 2 to 6, IHC image analysis, p=0.009) [%] | GRP immunostaining in the extracellular matrix ([4]; PR8-infected, NSC77427 days 2 to 6) | decrease in GRP+ PNECs ([4]; PR8-infected, NSC77427 days 2 to 6, IHC image analysis, p=0.001) [%] | GRP-induced angiogenesis (GRP-induced angiogenesis) | MyD88-dependent and TRIF-dependent cytokine gene expression with suboptimal LPS ([5]; GRP 1-100 nM plus LPS 0.1 and 1 ng/ml) | synergistic effect with LPS at higher doses of LPS ([5]; GRP 1-100 nM plus LPS up to 10 ng/ml) | cytokine gene expression, GRP alone ([5]; GRP 1-100 nM, no LPS) |
| --- | --- | --- | --- | --- | --- | --- | --- | --- | --- | --- | --- | --- | --- |
| Nc1nc(Cl)cc(NCCO)n1 [NSC77427, 2-[(2-amino-6-chloropyrimidin-4-yl)amino]ethanol] | mitigated | did not block | blunted | blunted | blunted | blunted | ~50 | visibly less | ~70 | blocked GRP-induced angiogenesis |  |  |  |
| GRP: exogenous gastrin-releasing peptide added to macrophages with LPS (VPLPAGGGTVLTKMYPRGNHWAVGHLM; ends and bridges not checked; UniProt P07492 24-50, looked up) |  |  |  |  |  |  |  |  |  |  | synergistic induction | largely lost | did not induce cytokine gene expression |
